A short description of series [1]: Cytotoxicity against human PBMC assessed as inhibition of cell growth by trypan blue staining. It counts as cell-based. The conditions noted are these: read-out: CCID50.
The subject of series [2] is Human immunodeficiency virus 1. Kind of series: Antiviral activity against wild type HIV-1 isolate infected in human PBMC cells assessed as inhibition of viral production by p24 antigen production/ELISA. It counts as functional, organism-based. The conditions noted are these: Human immunodeficiency virus 1, PBMC.
In series [3] the test system is Human immunodeficiency virus 1. As to the kind of experiment: Antiviral activity against HIV-1 HTLV-3B infected in human PBMC cells assessed as inhibition of viral production by p24 antigen production/ELISA. It counts as functional, organism-based. As to conditions: Human immunodeficiency virus 1, HTLV-3B.
The test system of series [4] is Human immunodeficiency virus 1. As to the kind of experiment: Fold resistance, ratio of IC50 for NRTI-resistant HIV-1 D67N, T69D, K70R, A98G, V118I, M184V, T215F and K219Q mutant to wild type HIV-1 isolate infected in human PBMC cells. It counts as functional.
A short description of series [5]: Half life in rat. It counts as ADME, organism-based. As to conditions: in vivo.
Series [6] is described as follows: Selectivity index, ratio of CCID50 for human PBMC to IC50 for HIV-1 HTLV-3B. It counts as functional.

Structures are written as SMILES.

Regarding `O=c1[nH]cnc2c1ncn2[C@H]1CC[C@@H](CO)O1` [DIDANOSINE], the CC50 in series [1] was determined as 100 µM. For the same compound, the results for the IC50 in series [2] and in series [3] were 3.42 µM and 40 µM, respectively. For the same compound, the “Ratio IC50” value in series [4] turned out to be 900. Moreover, the half-life in series [5] was 1 h. In series [6], the “Selectivity Index” value stood at 2.3.

As to `CCCCCCCOC(=O)OC[C@@H]1CC[C@H](n2cnc3c(=O)nc[nH]c32)O1`, the CC50 in series [1] was 520 µM. For the same compound, the IC50 in series [3] was 300 µM. In series [6], the “Selectivity Index” value turned out to be 1.7.

Take `Cc1cn([C@H]2C[C@H](N=[N+]=[N-])[C@@H](CO)O2)c(=O)[nH]c1=O` [ZIDOVUDINE]: the IC50 in series [2] came out at 0.216 µM. Moreover, the “Ratio IC50” value in series [4] came to 4000.

As to `CCCCCCOC(=O)OC[C@@H]1CC[C@H](n2cnc3c(=O)nc[nH]c32)O1`, in series [1], the CC50 came to 220 µM. Also, the IC50 in series [3] was 40 µM. The “Selectivity Index” value in series [6] is on record as 5.2.

For the compound `CCCCCOC(=O)OC[C@@H]1CC[C@H](n2cnc3c(=O)nc[nH]c32)O1`, the CC50 in series [1] worked out at 7000 µM. The IC50 in series [2] stood at 6.49 µM; in series [3], 30 µM. Moreover, in series [4], the “Ratio IC50” value stood at 600. Besides, in series [6], the “Selectivity Index” value was found to be 200.

Regarding `CCCCOC(=O)OC[C@@H]1CC[C@H](n2cnc3c(=O)nc[nH]c32)O1`, in series [1], the CC50 worked out at 290 µM. In series [3], the IC50 worked out at 100 µM. The “Selectivity Index” value in series [6] stood at 2.9.

In the case of `CCOC(=O)OC[C@@H]1CC[C@H](n2cnc3c(=O)nc[nH]c32)O1`, the CC50 in series [1] turned out to be 570 µM. Further, the IC50 in series [3] worked out at 490 µM. For the same compound, the “Selectivity Index” value in series [6] amounted to 1.2.

(Values after ChEMBL document CHEMBL3132835, “Biological evaluation and molecular modelling of didanosine derivatives” (Medchemcomm, 2014).)
